Among the data in US9242996B2 (Novartis AG, priority 2013, dated 2016) are IC50 values, retold here.

activated ERK2, sequence (P28482 whole entry): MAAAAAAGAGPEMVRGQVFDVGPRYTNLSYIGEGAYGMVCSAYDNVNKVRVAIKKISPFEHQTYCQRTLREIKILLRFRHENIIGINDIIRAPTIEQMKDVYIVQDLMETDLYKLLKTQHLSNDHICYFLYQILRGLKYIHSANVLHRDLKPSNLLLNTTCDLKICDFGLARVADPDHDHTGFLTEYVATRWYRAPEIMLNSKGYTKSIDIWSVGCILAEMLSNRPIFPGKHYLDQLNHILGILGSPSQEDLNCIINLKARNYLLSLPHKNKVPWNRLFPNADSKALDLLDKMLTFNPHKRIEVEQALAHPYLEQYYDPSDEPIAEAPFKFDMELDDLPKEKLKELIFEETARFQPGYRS

This experiment has as its target activated ERK2 (Homo sapiens (Human), UniProt P28482). Nature of the experiment: Activated ERK2 kinase assay, ERK2 New conditions (AlphaScreen, ERKtide phosphorylation). In kind it is biochemical. The note with it: 0.25 nM ERK2, 200 nM ERKtide peptide, 35 μM ATP, 30 min preincubation. On the procedure:
The assay is carried out in 50 mM HEPES [pH 7.5], 5 mM MgCl2, 1 mM DTT, 0.01% Tween-20, 0.05% BSA using 0.25 nM ERK2, 200 nM ERKtide peptide and 35 μM ATP (all concentrations are final in the reaction) in a total volume of 10.25 μL. […] Compound dilution series are prepared in 100% DMSO. ERK2 is preincubated with compounds for 30 minutes at ambient temperature. Reaction is initiated by addition of a substrate cocktail of ERKtide peptide and ATP and is allowed to proceed for 2-3 hours at ambient temperature. Reaction is terminated by addition of 10 μL of a 2× stop buffer consisting of 100 mM Tris-Cl [pH 7.5], 25 mM EDTA, 0.01% Tween 20, 10 μg/mL of AlphaScreen Protein A Acceptor Beads, 10 μg/mL of Streptavidin Donor Beads (PerkinElmer, Waltham, Mass.), and 1.4 μg/mL phospho-EGF Receptor (Thr669) antibody (Cat #3056, Cell Signaling Technology, Danvers, Mass.). Terminated reactions are read, after overnight incubation in the dark, on an EnVision Multilabel Plate Reader (PerkinElmer, Waltham, Mass.), with excitation and emission wavelengths set to 680 nm and 570 nm, respectively. IC50 values are determined using a four-parameter fit.
On the technique in general: In Alpha technology, singlet oxygen from a donor bead excites a nearby acceptor bead.
Take `C[C@@H](NC(=O)c1ccc(-c2nc(C3CCN(S(C)(=O)=O)CC3)cnc2N)cc1F)c1cccc(Cl)c1` [Example 57]: half-maximal inhibition (IC50) required 1.14 nM. The same measure for `COC(=O)N1CCC(c2cnc(N)c(-c3ccc(C(=O)N[C@H](CO)c4ccccc4)c(F)c3)n2)CC1` [Example 58, (S)-methyl 4-(5-amino-6-(3-fluoro-4-((2-hydroxy-1-phenylethyl)carbamoyl)phenyl)pyrazin-2-yl)piperidine-1-carboxylate]: 3.61 nM; for `COC(=O)N1CCC(c2cnc(N)c(-c3ccc(C(=O)N[C@H](CO)c4cccc(Cl)c4)c(F)c3)n2)CC1` [Example 59, (S)-methyl 4-(5-amino-6-(4-((1-(3-chlorophenyl)-2-hydroxyethyl)carbamoyl)-3-fluorophenyl)pyrazin-2-yl)piperidine-1-carboxylate]: 0.35 nM; for `CC(=O)N1CCC(c2cnc(N)c(-c3ccc(C(=O)N[C@H](CO)c4ccccc4)c(F)c3)n2)CC1` [Example 60, (S)-4-(6-(1-acetylpiperidin-4-yl)-3-aminopyrazin-2-yl)-2-fluoro-N-(2-hydroxy-1-phenylethyl)benzamide]: 12.4 nM. Regarding `CC(=O)N1CCC(c2cnc(N)c(-c3ccc(C(=O)N[C@H](CO)c4cccc(Cl)c4)c(F)c3)n2)CC1` [Example 61, (S)-4-(6-(1-acetylpiperidin-4-yl)-3-aminopyrazin-2-yl)-N-(1-(3-chlorophenyl)-2-hydroxyethyl)-2-fluorobenzamide], inhibition was half-maximal at 1.24 nM (IC50). With `COC(=O)N1CCC(c2cnc(N)c(-c3ccc(C(=O)N[C@H](CO)c4ccccc4)c(F)c3)c2)C1` (stereo partly drawn) [Example 62, methyl 3-(6-amino-5-(3-fluoro-4-(((S)-2-hydroxy-1-phenylethyl)carbamoyl)phenyl)pyridin-3-yl)pyrrolidine-1-carboxylate] the figure was 64.1 nM. Molecule `CS(=O)(=O)N1CCC(c2cnc(N)c(-c3ccc(C(=O)N[C@H](CO)c4ccccc4)c(F)c3)c2)C1` (stereo partly drawn) [Example 63, 4-(2-amino-5-(1-(methylsulfonyl)pyrrolidin-3-yl)pyridin-3-yl)-2-fluoro-N-((S)-2-hydroxy-1-phenylethyl)benzamide] yielded a 50% inhibitory concentration (IC50) of 23.3 nM.

Molecule `CCOCCc1cnc(N)c(-c2ccc(C(=O)N[C@H](CO)c3ccccc3)c(F)c2)n1` [Example 72, (S)-4-(3-amino-6-(2-ethoxyethyl)pyrazin-2-yl)-2-fluoro-N-(2-hydroxy-1-phenylethyl)benzamide] had a half-maximal inhibitory concentration (IC50) of 177 nM. `Nc1ncc(C2CCS(=O)(=O)CC2)cc1-c1ccc(C(=O)NCc2ccccc2)c(F)c1` [Example 78, 4-(2-amino-5-(1,1-dioxidotetrahydro-2H-thiopyran-4-yl)pyridin-3-yl)-N-benzyl-2-fluorobenzamide] registered an IC50 of 172 nM.

`CS(=O)(=O)c1cccc(CNC(=O)c2ccc(-c3nc(C4CC4)cnc3N)cc2F)c1` [Example 99, 4-(3-amino-6-cyclopropylpyrazin-2-yl)-2-fluoro-N-(3-(methylsulfonyl)benzyl)benzamide] gave a 50% inhibitory concentration (IC50) of 12.1 nM. With `C[C@@H]1C[C@H](c2cnc(N)c(-c3ccc(C(=O)NCc4cccc(S(C)(=O)=O)c4)cc3)n2)CCO1` [Example 100, 4-(3-amino-6-((2R,4R)-2-methyltetrahydro-2H-pyran-4-yl)pyrazin-2-yl)-N-(3-(methylsulfonyl)benzyl)benzamide] the figure was 7.76 nM. Consider `C[C@H]1C[C@@H](c2cnc(N)c(-c3ccc(C(=O)NCc4cccc(S(C)(=O)=O)c4)cc3)n2)CCO1` [Example 101, 4-(3-amino-6-((2S,4S)-2-methyltetrahydro-2H-pyran-4-yl)pyrazin-2-yl)-N-(3-(methylsulfonyl)benzyl)benzamide], for which half-maximal inhibition (IC50) required 76.9 nM.

The molecule `COC1CCC(c2cnc(N)c(-c3ccc(C(=O)NCc4ccccc4)c(F)c3)n2)C1` (stereo not shown) [Example 104, 4-(3-amino-6-(3-methoxycyclopentyl)pyrazin-2-yl)-N-benzyl-2-fluorobenzamide] had an IC50 of 191 nM. As to `Cn1cc(-c2cnc(N)c(-c3ccc(C(=O)N[C@H](CO)c4ccccc4)c(F)c3)c2)cn1` [Example 107, (S)-4-(2-amino-5-(1-methyl-1H-pyrazol-4-yl)pyridin-3-yl)-2-fluoro-N-(2-hydroxy-1-phenylethyl)benzamide], the IC50 was found to be 1.16 nM.

As to `Nc1ncc(C2CCOCC2)nc1-c1ccc2c(c1)OCCN(Cc1ccccc1)C2=O` [Example 109, 8-(3-amino-6-(tetrahydro-2H-pyran-4-yl)pyrazin-2-yl)-4-benzyl-3,4-dihydrobenzo[f][1,4]oxazepin-5(2H)-one], half-maximal inhibition (IC50) required 5.81 nM. With `Nc1ncc(C2CCS(=O)(=O)CC2)cc1-c1ccc2c(c1)OCCN(Cc1ccccc1)C2=O` [Example 110, 8-(2-amino-5-(1,1-dioxidotetrahydro-2H-thiopyran-4-yl)pyridin-3-yl)-4-benzyl-3,4-dihydrobenzo[f][1,4]oxazepin-5(2H)-one] the figure was 1000 nM; with `Nc1ncc(CCO)nc1-c1ccc(C(=O)N[C@H](CO)c2ccccc2)c(F)c1` [Example 111, (S)-4-(3-amino-6-(2-hydroxyethyl)pyrazin-2-yl)-2-fluoro-N-(2-hydroxy-1-phenylethyl)benzamide], 30.8 nM. The same measure for `COCCc1cnc(N)c(-c2ccc(C(=O)N[C@H](CO)c3ccccc3)c(F)c2)n1` [Example 112, (S)-4-(3-amino-6-(2-methoxyethyl)pyrazin-2-yl)-2-fluoro-N-(2-hydroxy-1-phenylethyl)benzamide]: 141 nM; for `Nc1ncc(C2CCOCC2)cc1-c1ccc(C(=O)N[C@@H]2CCCN(Cc3ccccc3F)C2)c(F)c1` [Example 113, (R)-4-(2-amino-5-(tetrahydro-2H-pyran-4-yl)pyridin-3-yl)-2-fluoro-N-(1-(2-fluorobenzyl)piperidin-3-yl)benzamide]: 780 nM. With `N#CCCc1cnc(N)c(-c2ccc(C(=O)N[C@H](CO)c3ccccc3)c(F)c2)n1` [Example 114, (S)-4-(3-amino-6-(2-cyanoethyl)pyrazin-2-yl)-2-fluoro-N-(2-hydroxy-1-phenylethyl)benzamide] the figure was 124 nM; with `Nc1ncc(C2CCOCC2)nc1-c1ccc(C(=O)N[C@H]2CCCN(Cc3ccccc3F)C2)c(F)c1` [Example 125, (S)-4-(3-amino-6-(tetrahydro-2H-pyran-4-yl)pyrazin-2-yl)-2-fluoro-N-(1-(2-fluorobenzyl)piperidin-3-yl)benzamide], 2230 nM; with `Nc1ncc(C2CCOCC2)nc1-c1ccc(C(=O)N[C@@H]2CCCN(Cc3ccccc3F)C2)c(F)c1` [Example 126, (R)-4-(3-amino-6-(tetrahydro-2H-pyran-4-yl)pyrazin-2-yl)-2-fluoro-N-(1-(2-fluorobenzyl)piperidin-3-yl)benzamide], 169 nM. The molecule `Cn1cc(-c2cnc(N)c(-c3ccc(C(=O)N[C@H](CO)c4cccc(Cl)c4)c(F)c3)c2)nn1` [Example 128, (S)-4-(2-amino-5-(1-methyl-1H-1,2,3-triazol-4-yl)pyridin-3-yl)-N-(1-(3-chlorophenyl)-2-hydroxyethyl)-2-fluorobenzamide] registered an IC50 of 0.835 nM. Molecule `Nc1ncc(-c2ccc(=O)[nH]c2)nc1-c1ccc(C(=O)N[C@H](CO)c2ccccc2)cc1` [Example 129, (S)-4-(3-amino-6-(6-oxo-1,6-dihydropyridin-3-yl)pyrazin-2-yl)-N-(2-hydroxy-1-phenylethyl)benzamide] gave an IC50 of 2.02 nM. On to `N#CCc1cnc(N)c(-c2ccc(C(=O)N[C@H](CO)c3ccccc3)c(F)c2)c1` [Example 134, (S)-4-(2-amino-5-(cyanomethyl)pyridin-3-yl)-2-fluoro-N-(2-hydroxy-1-phenylethyl)benzamide], for which the IC50 was 202 nM. `Nc1ncc([C@@H]2CCOC2)nc1-c1ccc(C(=O)N[C@H](CO)c2ccccc2)cc1` [Example 136, 4-(3-amino-6-((S)-tetrahydrofuran-3-yl)pyrazin-2-yl)-N—((S)-2-hydroxy-1-phenylethyl)benzamide] showed a concentration for half-maximal inhibition (IC50) of 4.51 nM. For the molecule `Nc1ncc([C@H]2CCOC2)nc1-c1ccc(C(=O)N[C@H](CO)c2ccccc2)cc1` [Example 137, 4-(3-amino-6-((R)-tetrahydrofuran-3-yl)pyrazin-2-yl)-N—((S)-2-hydroxy-1-phenylethyl)benzamide], the IC50 stood at 31 nM. With `Nc1ncc(-c2ccoc2)nc1-c1ccc(C(=O)N[C@H](CO)c2ccccc2)cc1` [Example 138] the figure was 13.3 nM. As for `Cc1cnccc1-c1cnc(N)c(-c2ccc(C(=O)NCc3cccc(S(C)(=O)=O)c3)cc2)n1` [Example 139, 4-(3-amino-6-(3-methylpyridin-4-yl)pyrazin-2-yl)-N-(3-(methylsulfonyl)benzyl)benzamide], the IC50 was determined as 7.95 nM.

Turning to `Cn1cncc1-c1cnc(N)c(-c2ccc(C(=O)N[C@H](CO)c3ccccc3)c(F)c2)c1` [Example 140, (S)-4-(2-amino 5-(1-methyl-1H-imidazol-5-yl)pyridin-3-yl)-2-fluoro-N-(2-hydroxy-1-phenylethyl)benzamide], the IC50 worked out at 1.41 nM.

Consider `Cn1nncc1-c1cnc(N)c(-c2cc(F)c(C(=O)N[C@H](CO)c3cccc(Cl)c3)c(F)c2)c1` [Example 141, (S)-4-(2-amino-5-(1-methyl-1H-1,2,3-triazol-5-yl)pyridin-3-yl)-N-(1-(3-chlorophenyl)-2-hydroxyethyl)-2,6-difluorobenzamide], for which the IC50 came out at 0.183 nM.

For orientation: IC50 means the point on the concentration scale where inhibition reaches its midpoint. A lower IC50 goes with greater potency.
